{
  "source": "patent US12258611B2",
  "about": "“Device for detecting tomato pathogenic fungus and detection method using the same” (Panasonic Intellectual Property Management Co., Ltd., priority 2018, dated 2025)",
  "assay_in_all_cases": "hyphae penetrating the artificial cell wall, fludioxonil in culture solution",
  "format_in_all_cases": "cell-based",
  "key": {"Botrytis cinerea": {"test_system": "Botrytis cinerea", "settings": "25° C., 72 hours", "description": "Botrytis cinerea, which is one of tomato pathogens and is a pathogenic fungus that causes tomato gray mold, was inoculated onto a potato dextrose agar medium (Difco™ Potato Dextrose Agar). Subsequently, the medium was left static at a temperature of 25° C. for a week. The Botrytis cinerea was given by Associate Professor Shimizu, Faculty of Applied Biological Sciences, Gifu University. Subsequently, the potato dextrose agar medium having cultured Botrytis cinerea with sufficient hyphal growth was left under irradiation with black light for four days or longer, and subsequently left in a room-temperature environment for two weeks or longer, to promote sporulation. To the resultant potato dextrose agar medium having cultured Botrytis cinerea, several milliliters of sterile pure water was dropped, and the surface of the hyphae was rubbed with, for example, a platinum loop or a brush, to obtain a disintegrated hypha-spore mixed suspension.\n(§1) The above-described container having, at the bottom surface, the artificial cell wall including the polyethylene terephthalate film (substrate) having, on its back surface, the cellulose membrane was placed on a culture medium container (culture-solution storage), to provide a device for detecting a tomato pathogenic fungus. The culture medium container was a 24-well flat-bottom culture plate (Corning Incorporated, trade name: 24 Well Cell Culture Cluster Flat Bottom). […]\n(§2) Subsequently, sterile purified water was added such that the total volume with such a disintegrated hypha-spore mixed suspension became 200 μL. The tomato-pathogenic-fungus selection method device in which the seven species of fungi were added was left to stand at a temperature of 25° C. for 72 hours, and the number of hyphae penetrating the artificial cell wall and observed at the back surface was visually counted using an optical microscope. […]"}, "Phoma multirostrata": {"test_system": "Phoma multirostrata", "settings": "Comparative Example 1, fludioxonil 133 mg/L, 25° C., 72 hours", "from_the_text": "(§3) Biscogniauxia maritima, Penicillium olsonii, Phoma multirostrata, and Trichoderma asperellum, which are not tomato pathogens but were present on tomato leaves, were sampled from the tomato leaves, isolated, and then inoculated onto a potato dextrose agar medium. The tomato plants serving as the isolation sources were sampled at a plurality of sites. The isolation method was as follows: into a clean resin container or resin bag, several tomato leaves sampled were placed together with a fungus collection solution composed of physiological saline containing 0.1% surfactant Tween 80 (SIGMA-ALDRICH), and stirred for 1 minute to transfer the fungi adhering to the leaves to the fungus collection solution; this fungus collection solution was diluted, and applied to a potato dextrose agar medium containing 100 mg/L of streptomycin sulfate (Wako) by the spread plate culture technique; subsequently, the medium was incubated at 25° C. for several days and, from the produced fungus colonies, the isolation was performed. We requested Tama Laboratory, (general incorporated association) Japan Food Research Laboratories to perform identification. The above-described Biscogniauxia maritima, Penicillium olsonii, Phoma multirostrata, and Trichoderma asperellum isolated and then inoculated onto the potato dextrose agar medium were left static at a temperature of 25° C. for a week. Subsequently, to the potato dextrose agar medium on which the four species of fungi were cultured with sufficient hyphal growth or sufficient sporulation, several milliliters of sterile pure water was dropped; the surface of the hyphae was rubbed with, for example, a platinum loop or a brush, to obtain a disintegrated hypha-spore mixed suspension.\nas §1, with “fungus.” for “fungus. The culture medium container was a 24-well flat-bottom culture plate (Corning Incorporated, trade name: 24 Well Cell Culture Cluster Flat Bottom).”"}, "Biscogniauxia maritima": {"test_system": "Biscogniauxia maritima", "settings": "Comparative Example 1, fludioxonil 133 mg/L, 25° C., 72 hours", "from_the_text": "as §3\nas §1, with “fungus.” for “fungus. The culture medium container was a 24-well flat-bottom culture plate (Corning Incorporated, trade name: 24 Well Cell Culture Cluster Flat Bottom).”"}, "Penicillium olsonii": {"test_system": "Penicillium olsonii", "settings": "Comparative Example 1, fludioxonil 133 mg/L, 25° C., 72 hours", "from_the_text": "as §3\nas §1, with “fungus.” for “fungus. The culture medium container was a 24-well flat-bottom culture plate (Corning Incorporated, trade name: 24 Well Cell Culture Cluster Flat Bottom).”"}, "Passalora fulva": {"test_system": "Passalora fulva", "settings": "25° C., 72 hours", "description": "Passalora fulva, which is one of tomato pathogens and is a pathogenic fungus that causes tomato leaf mold, was inoculated onto a potato dextrose agar medium. Subsequently, the medium was left static at a temperature of 23° C. for one to two weeks. Passalora fulva was distributed by The Genetic Resources Center, The National Agriculture and Food Research Organization (MAFF No. 726744). Subsequently, to the potato dextrose agar medium having cultured Passalora fulva with sufficient hyphal growth, several milliliters of sterile pure water was dropped, and the surface of the hyphae was rubbed with, for example, a platinum loop or a brush, to obtain a disintegrated hypha-spore mixed suspension.\nas §1, with “Bottom). Between the culture medium container and the artificial-cell-wall-formed container, 600 μL of a liquid culture medium (culture solution) was charged so as to be in contact with the back surface of the artificial-cell-wall-formed container.” for “Bottom).”\nas §2"}, "Trichoderma asperellum": {"test_system": "Trichoderma asperellum", "from_the_text": "as §3\nas §1, with “fungus.” for “fungus. The culture medium container was a 24-well flat-bottom culture plate (Corning Incorporated, trade name: 24 Well Cell Culture Cluster Flat Bottom).”"}, "[1]": {"test_system": "Pseudocercospora fuligena", "settings": "25° C., 72 hours", "description": "Pseudocercospora fuligena, which is one of tomato pathogens and is a pathogenic fungus that causes tomato Cercospora leaf mold, was inoculated onto a potato dextrose agar medium. Subsequently, the medium was left static at a temperature of 28° C. for a week. Pseudocercospora fuligena was distributed by The Genetic Resources Center, The National Agriculture and Food Research Organization (MAFF No. 306728). Subsequently, hyphae of Pseudocercospora fuligena were transferred from the potato dextrose agar medium to a burdock root powder agar medium, further left static for one to two weeks at a temperature of 28° C.; after hyphae sufficiently grew again, the surface of the hyphae was subjected to a mechanical stress such as rubbing with, for example, a platinum loop or a brush; subsequently, the medium was left under irradiation with black light for four days or longer, subsequently left in a room-temperature environment for two weeks or longer, to promote sporulation again. To the resultant burdock root powder agar medium having cultured Pseudocercospora fuligena, several milliliters of sterile pure water was dropped, and the surface of the hyphae was rubbed with, for example, a platinum loop or a brush, to obtain a disintegrated hypha-spore mixed suspension.\nas §1, with “fungus.” for “fungus. The culture medium container was a 24-well flat-bottom culture plate (Corning Incorporated, trade name: 24 Well Cell Culture Cluster Flat Bottom).”\nas §2"}, "[2]": {"settings": "Comparative Example 1, fludioxonil 133 mg/L"}, "[3]": {"settings": "Example 1, fludioxonil 0.5 mg/L"}, "[4]": {"settings": "Example 2, fludioxonil 1.3 mg/L"}},
  "data": [
    {"smiles": "N#Cc1c[nH]cc1-c1cccc2c1OC(F)(F)O2", "note": "[fludioxonil]", "values": [
      {"measurement": "hyphae penetrating the artificial cell wall", "setting": "Botrytis cinerea; [2]", "result": "not observed"},
      {"measurement": "hyphae penetrating the artificial cell wall", "setting": "Botrytis cinerea; [3]", "result": "had hyphae penetrating the artificial cell wall"},
      {"measurement": "hyphae penetrating the artificial cell wall", "setting": "Botrytis cinerea; [4]", "result": "had hyphae penetrating the artificial cell wall"},
      {"measurement": "hyphae penetrating the artificial cell wall", "setting": "Phoma multirostrata", "result": "not observed"},
      {"measurement": "hyphae penetrating the artificial cell wall", "setting": "Biscogniauxia maritima", "result": "not observed"},
      {"measurement": "hyphae penetrating the artificial cell wall", "setting": "Penicillium olsonii", "result": "not observed"},
      {"measurement": "hyphae penetrating the artificial cell wall", "setting": "Passalora fulva; [2]", "result": "not observed"},
      {"measurement": "hyphae penetrating the artificial cell wall", "setting": "Passalora fulva; [3]", "result": "had hyphae penetrating the artificial cell wall"},
      {"measurement": "hyphae penetrating the artificial cell wall", "setting": "Passalora fulva; [4]", "result": "had hyphae penetrating the artificial cell wall"},
      {"measurement": "hyphae penetrating the artificial cell wall", "setting": "Trichoderma asperellum; Comparative Example 1, fludioxonil 133 mg/L, 25° C., 72 hours", "result": "not observed"},
      {"measurement": "effect of excluding Trichoderma asperellum (number of hyphae penetrating the artificial cell walls)", "setting": "Trichoderma asperellum; Comparative Example 2, fludioxonil 0.1 mg/L (1/1000 of the concentration that provides the agricultural chemical effect)", "result": "not observed"},
      {"measurement": "growth of Trichoderma asperellum (number of hyphae penetrating the artificial cell walls)", "setting": "Trichoderma asperellum; Comparative Example 2, fludioxonil 0.5 mg/L (1/250 of the concentration that provides the agricultural chemical effect)", "result": "inhibited"},
      {"measurement": "hyphae penetrating the artificial cell wall", "setting": "[1]; [2]", "result": "not observed"},
      {"measurement": "hyphae penetrating the artificial cell wall", "setting": "[1]; [3]", "result": "had hyphae penetrating the artificial cell wall"},
      {"measurement": "hyphae penetrating the artificial cell wall", "setting": "[1]; [4]", "result": "had hyphae penetrating the artificial cell wall"}
    ]}
  ]
}
